Measurements as given in article PMC5241706, “Biochemical and Structural Characterization of Selective Allosteric Inhibitors of the Plasmodium falciparum Drug Target, Prolyl-tRNA-synthetase” (ACS Infectious Diseases, 2016).
One block for each compound: values may come before it.

What was measured:
PfProRS [1] = molecular target: T1, PfProRS (Plasmodium falciparum, UniProt Q8I5R7); test: biochemical; assay type: biochemical; conditions: for IC50: read-out: Pf ProRS IC50
T1 construct: B2, AA7–746 (minus 6 amino acids, or 99% of the ORF); made in house; host or cells: E. coli BL21(DE3)R3 Rosetta Oxford

[2] = system: Plasmodium falciparum strain 3D7; test: Plasmodium falciparum growth inhibition, SYBR green fluorescence; assay type: cell-based; conditions: 3D7, growth inhibition, read-out: Pf (3D7) EC50
PfProRS [3] = molecular target: T1, PfProRS; test: luciferase ATP depletion assay, HTS format; assay type: biochemical; conditions: read-out: Percentage inhibition Pf ProRS
HsProRS = molecular target: T2, HsProRS (Homo sapiens, UniProt P07814); test: luciferase ATP depletion assay, counter-screen; assay type: biochemical; conditions: read-out: Percentage inhibition Hs ProRS; for inhibition at 0.03 µM: at 0.03 μM (22.50 μM series); for inhibition at 2.5 µM: at 2.50 μM (22.50 μM series); for inhibition at 7.5 µM: at 7.50 μM; for inhibition at 22.5 µM: at 22.50 μM
T2 construct: made in house
T2 sequence (P07814 1007-1512 limits assumed): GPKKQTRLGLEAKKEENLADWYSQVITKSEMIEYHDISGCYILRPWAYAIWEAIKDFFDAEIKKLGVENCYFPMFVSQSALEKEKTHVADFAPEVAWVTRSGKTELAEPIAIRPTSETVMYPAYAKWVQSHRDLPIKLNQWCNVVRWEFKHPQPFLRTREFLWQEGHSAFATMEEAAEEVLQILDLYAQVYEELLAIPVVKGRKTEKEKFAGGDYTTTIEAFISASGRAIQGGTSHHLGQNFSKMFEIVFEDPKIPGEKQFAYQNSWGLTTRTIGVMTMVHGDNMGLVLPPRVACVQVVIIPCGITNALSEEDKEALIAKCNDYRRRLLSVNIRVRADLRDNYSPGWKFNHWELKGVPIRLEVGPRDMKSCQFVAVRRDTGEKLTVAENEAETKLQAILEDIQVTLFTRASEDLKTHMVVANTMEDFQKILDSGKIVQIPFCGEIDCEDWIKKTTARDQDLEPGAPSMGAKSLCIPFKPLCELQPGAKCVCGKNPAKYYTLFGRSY

T1 sequence (Q8I5R7 7-746): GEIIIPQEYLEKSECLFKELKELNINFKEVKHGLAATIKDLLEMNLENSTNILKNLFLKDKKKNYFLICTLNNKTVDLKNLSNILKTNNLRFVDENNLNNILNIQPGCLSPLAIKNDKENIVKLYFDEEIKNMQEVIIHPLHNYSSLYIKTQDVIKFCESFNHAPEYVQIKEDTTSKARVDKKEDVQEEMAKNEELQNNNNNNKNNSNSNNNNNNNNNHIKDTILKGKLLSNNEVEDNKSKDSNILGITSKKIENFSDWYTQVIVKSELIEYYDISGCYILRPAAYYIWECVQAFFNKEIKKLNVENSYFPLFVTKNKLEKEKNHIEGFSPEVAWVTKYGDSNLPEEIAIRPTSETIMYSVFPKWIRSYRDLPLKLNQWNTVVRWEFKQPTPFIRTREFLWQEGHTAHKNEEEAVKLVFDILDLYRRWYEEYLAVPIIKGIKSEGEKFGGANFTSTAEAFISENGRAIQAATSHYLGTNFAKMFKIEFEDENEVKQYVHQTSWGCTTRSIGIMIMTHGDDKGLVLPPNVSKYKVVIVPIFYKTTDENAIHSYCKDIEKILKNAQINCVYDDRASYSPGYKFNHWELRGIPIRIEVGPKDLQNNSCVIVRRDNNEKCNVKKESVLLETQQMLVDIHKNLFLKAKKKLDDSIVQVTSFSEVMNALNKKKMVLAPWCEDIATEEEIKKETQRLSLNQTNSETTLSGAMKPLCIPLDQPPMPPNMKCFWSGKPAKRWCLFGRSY

IC50 (PfProRS [1]): 4 µM
Compound: CN(C)CCc1nn(C)c(NC(=O)Nc2ccc(F)cc2)c1-c1ccc(F)cc1 [Compound 25]
EC50 [2]: > 50 µM

IC50 (PfProRS [1]): 8 µM
Compound: Cn1nc(C(F)(F)F)c(-c2ccc(F)cc2)c1NC(=O)Nc1cccc(F)c1 [Compound 4]
EC50 [2]: 0.35 µM

drop in PfProRS potency versus hit compound (PfProRS [1]): 4 fold | IC50 (PfProRS [1]): 20 µM
Compound: Cn1nc(C(F)(F)F)c(-c2ccccc2CO)c1NC(=O)Nc1ccc(F)cc1 [Compound 13]
EC50 [2]: 8 µM

Compound: N[C@@H](COc1cccc2c(-c3ccncc3)c(-c3cccc(NC(=O)Nc4ccccc4)c3)nn12)c1ccccc1 [TCMDC-135512]
inhibition at 0.28 µM (PfProRS [3]): 2.37% | inhibition at 0.03 µM (PfProRS [3]): 1.13% | inhibition at 0.09 µM (PfProRS [3]): 2.63% | inhibition at 0.83 µM (PfProRS [3]): 3.62% | inhibition at 2.5 µM (PfProRS [3]): 11.8% | inhibition at 7.5 µM (PfProRS [3]): 40.4% | inhibition at 22.5 µM (PfProRS [3]): 56.8% | inhibition at 0.03 µM (HsProRS): -0.42% | inhibition at 0.09 µM (HsProRS): 0.03% | inhibition at 0.28 µM (HsProRS): -0.52% | inhibition at 0.83 µM (HsProRS): -0.24% | inhibition at 2.5 µM (HsProRS): -0.12% | inhibition at 7.5 µM (HsProRS): -0.42% | inhibition at 22.5 µM (HsProRS): -0.2%

Compound: Cc1ccc(-c2oc(N)c(C#N)c2-c2ccc(C)cc2)cc1 [SJ000368256]
inhibition at 0.12 µM (PfProRS [3]): -0.29% | inhibition at 0.37 µM (PfProRS [3]): -0.09% | inhibition at 1.46 µM (PfProRS [3]): -0.33% | inhibition at 3.33 µM (PfProRS [3]): 0.44% | inhibition at 10 µM (PfProRS [3]): 0.96% | inhibition at 30 µM (PfProRS [3]): 39.7% | inhibition at 0.12 µM (HsProRS; at 0.12 μM (30 μM series)): -0.1% | inhibition at 0.37 µM (HsProRS; at 0.37 μM): 0.01% | inhibition at 1.46 µM (HsProRS; at 1.46 μM (30 μM series)): -0.15% | inhibition at 3.33 µM (HsProRS; at 3.33 μM): 0.06% | inhibition at 10 µM (HsProRS; at 10.00 μM): 0.08% | inhibition at 30 µM (HsProRS; at 30.00 μM): 0.41%

Compound: CCCCC(N)COc1cccc2c(-c3ccncc3)c(-c3cccc(NC(=O)Nc4ccccc4)c3)nn12 (stereo not drawn) [TCMDC-135537]
inhibition at 0.28 µM (PfProRS [3]): -1.18% | inhibition at 0.03 µM (PfProRS [3]): -1.72% | inhibition at 0.09 µM (PfProRS [3]): -1.11% | inhibition at 0.83 µM (PfProRS [3]): 1.73% | inhibition at 2.5 µM (PfProRS [3]): 11.7% | inhibition at 7.5 µM (PfProRS [3]): 39% | inhibition at 22.5 µM (PfProRS [3]): 84.8% | inhibition at 0.03 µM (HsProRS): -0.2% | inhibition at 0.09 µM (HsProRS): -0.49% | inhibition at 0.28 µM (HsProRS): 0.03% | inhibition at 0.83 µM (HsProRS): 0.8% | inhibition at 2.5 µM (HsProRS): 0% | inhibition at 7.5 µM (HsProRS): 0.28% | inhibition at 22.5 µM (HsProRS): 0.55%

IC50 (PfProRS [1]): > 50 µM
Compound: Cn1nc(C(F)(F)F)c(-c2ccccc2CCO)c1NC(=O)Nc1ccc(F)cc1 [Compound 14]
